Test results from patent publication US12721840B2, “Methods of treating glioblastoma multiforme using combination therapy” (MediciNova, Inc., priority 2021, dated 2026).

Key:
[1] = literature statement (Sanftner et al Xenobiotica 2009; Chen et al. 2002); cited from earlier work
[2] = tested on: GBM orthotopic tumors (SB28 cells); assay: Murine GBM model: survival of mice bearing orthotopic syngeneic SB28 tumors; type: in vivo; settings: syngeneic mouse model, 20,000 SB28 cells; ibudilast 50 mg/kg, anti-PD1 25 μg/dose; 3 intraperitoneal injections 3 days apart from day 7 post-engraftment; n=10 male mice/group; control 17 days
Method: FIGURE depicts results from a murine glioblastoma model (ibudilast treatment in a syngeneic mouse model (20,000 SB28 cells) synergized with anti-PD1), in which mice are treated with ibudilast, an anti-PD-1 antibody, or a combination of ibudilast and an anti-PD-1 antibody. Isotype serves as negative control for the anti-PD-1 antibody and vehicle serves as negative control for ibudilast. Treatment was initiated at day 7 post-engraftment with 3 intraperitoneal injections 3 days apart; n=10 mice/group (male); median survival provided for each group, *p<0.05, **p<0.01, ***p<0.001 as assessed by log-rank (colored stars indicate comparison to each control group).
Mice bearing GBM orthotopic tumors were subjected to treatment with a PD-1 antibody in the presence or absence of ibudilast (or to ibudilast alone) and evaluated for their survival after the start of treatment. More particularly, ibudilast treatment (50 mg/kg) was performed in a syngeneic mouse model (20,000 SB28 cells) synergized with anti-PD1 (25 μg/dose). Treatment was initiated at day 7 post-engraftment with 3 intraperitoneal injections 3 days apart; n=10 mice/group (male).

Row | SMILES | penetration into the central nervous system (CNS) [1] | median survival [2]
1 | CC(C)C(=O)c1c(C(C)C)nn2ccccc12 [Ibudilast, 3-isobutyryl-2-isopropylpyrazolo[1,5-a]pyridine] | good CNS penetration | did not impact median survival
2 | COc1ccc(C2CNC(=O)C2)cc1OC1CCCC1 (stereo not drawn) [rolipram] | poor penetration into the central nervous system | –
